Measured values from PubChem BioAssay AID1845210 (Molecular Pharmacology Branch, DTP, NCI, 2023).

System: NCI-H226 complex tumor spheroids, viability
Assay: Anticancer human tumor NCI-H226 cell line growth inhibition;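 further: spheroids exposed to compound for 7 days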;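 on viability, T/C: 100% = DMSO vehicle control viability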
Settings: for IC50: curve of first compound; for viability, T/C: stronger effect = lower value
Summary of the method: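 Complex spheroids of malignant cells with endothelial cells and mesenchymal stem cells; agents alone or combined, from near clinical Cmax (or 10 microM if unknown) down in half-log steps, 0.25% DMSO final.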

[1] = second compound 1 µM, first compound 0.0316 µM
[2] = second compound 1 µM, first compound 0.1 µM
[3] = second compound 1 µM, first compound 0.316 µM
[4] = second compound 1 µM, first compound 1 µM
[5] = second compound 1 µM, first compound 3.16 µM
[6] = second compound 1 µM, first compound 10 µM
[7] = second compound 3.16 µM, first compound 0.0316 µM
[8] = second compound 3.16 µM, first compound 0.1 µM
[9] = second compound 3.16 µM, first compound 0.316 µM
[10] = second compound 3.16 µM, first compound 1 µM
[11] = second compound 3.16 µM, first compound 3.16 µM
[12] = second compound 3.16 µM, first compound 10 µM
[13] = second compound 10 µM, first compound 0.0316 µM
[14] = second compound 10 µM, first compound 0.1 µM
[15] = second compound 10 µM, first compound 0.316 µM
[16] = second compound 10 µM, first compound 1 µM
[17] = second compound 10 µM, first compound 3.16 µM
[18] = second compound 10 µM, first compound 10 µM
[19] = second compound 31.6 µM, first compound 0.0316 µM
[20] = second compound 31.6 µM, first compound 0.1 µM
[21] = second compound 31.6 µM, first compound 0.316 µM
[22] = second compound 31.6 µM, first compound 1 µM
[23] = second compound 31.6 µM, first compound 3.16 µM
[24] = second compound 31.6 µM, first compound 10 µM
[25] = second compound 100 µM, first compound 0.0316 µM
[26] = second compound 100 µM, first compound 0.1 µM
[27] = second compound 100 µM, first compound 0.316 µM
[28] = second compound 100 µM, first compound 1 µM
[29] = second compound 100 µM, first compound 3.16 µM
[30] = second compound 100 µM, first compound 10 µM

| Structure (SMILES) | IC50 (second compound 1 µM) [µM] | IC50 (second compound 3.16 µM) [µM] | IC50 (second compound 10 µM) [µM] | IC50 (second compound 31.6 µM) [µM] | IC50 (second compound 100 µM) [µM] | viability, T/C [1] [%] | viability, T/C [2] [%] | viability, T/C [3] [%] | viability, T/C [4] [%] | viability, T/C [5] [%] | viability, T/C [6] [%] | viability, T/C [7] [%] | viability, T/C [8] [%] | viability, T/C [9] [%] | viability, T/C [10] [%] | viability, T/C [11] [%] | viability, T/C [12] [%] | viability, T/C [13] [%] | viability, T/C [14] [%] | viability, T/C [15] [%] | other results |
| --- | --- | --- | --- | --- | --- | --- | --- | --- | --- | --- | --- | --- | --- | --- | --- | --- | --- | --- | --- | --- | --- |
| CC1COCCN1c1cc(-c2ccnn2C)c2ccnc(-c3ccn[nH]3)c2n1 (stereo not given) + Cn1nnc2c(C(N)=O)ncn2c1=O | 1.89 | 1.75 | 2.01 | 2.02 | 2.41 | 88.1 | 86.8 | 79.3 | 59.6 | 42.4 | 35.9 | 98.8 | 86.1 | 78.4 | 50.8 | 47.8 | 34.9 | 105 | 88.6 | 73 | viability, T/C [16]: 59.3%; viability, T/C [17]: 43.1%; viability, T/C [18]: 36.1%; viability, T/C [19]: 90.2%; viability, T/C [20]: 91.5%; viability, T/C [21]: 74.7%; viability, T/C [22]: 58.3%; viability, T/C [23]: 46.1%; viability, T/C [24]: 37.9%; viability, T/C [25]: 116%; viability, T/C [26]: 107%; viability, T/C [27]: 92.9%; viability, T/C [28]: 61.5%; viability, T/C [29]: 46.2%; viability, T/C [30]: 42.5% |
| COc1cc(C)[nH]c(=O)c1CN1CCc2c(Cl)cc(C(OC)C3COC3)c(Cl)c2C1=O (stereo not given) + Cn1nnc2c(C(N)=O)ncn2c1=O | > 10 | > 10 | > 10 | > 10 | > 10 | 133 | 131 | 130 | 133 | 129 | 132 | 117 | 138 | 124 | 121 | 136 | 108 | 132 | 128 | 125 | viability, T/C [16]: 136%; viability, T/C [17]: 128%; viability, T/C [18]: 127%; viability, T/C [19]: 124%; viability, T/C [20]: 144%; viability, T/C [21]: 132%; viability, T/C [22]: 125%; viability, T/C [23]: 135%; viability, T/C [24]: 145%; viability, T/C [25]: 118%; viability, T/C [26]: 132%; viability, T/C [27]: 136%; viability, T/C [28]: 146%; viability, T/C [29]: 137%; viability, T/C [30]: 150% |
| COc1ccc([C@@H](O)c2cc(-c3ncnc4cc(N5CCOCC5)ccc34)c(F)cc2Cl)nn1 + Cn1nnc2c(C(N)=O)ncn2c1=O | 4.71 | 2.97 | 3.43 | 3.69 | 4.53 | 94.3 | 100 | 89 | 66.8 | 60.8 | 37.5 | 95.2 | 101 | 92.2 | 67.9 | 52.1 | 38.1 | 86.9 | 89.4 | 90.4 | viability, T/C [16]: 73.8%; viability, T/C [17]: 52.1%; viability, T/C [18]: 34.4%; viability, T/C [19]: 98.5%; viability, T/C [20]: 91.8%; viability, T/C [21]: 91%; viability, T/C [22]: 67.5%; viability, T/C [23]: 54.2%; viability, T/C [24]: 36.7%; viability, T/C [25]: 111%; viability, T/C [26]: 107%; viability, T/C [27]: 95.8%; viability, T/C [28]: 75.9%; viability, T/C [29]: 56.1%; viability, T/C [30]: 38.1% |
| Cc1cc(C)c(CNC(=O)c2cc(-c3ccc(CN4CCOCC4)cc3)cc3c2cnn3C2CCCC2)c(=O)[nH]1 + Cn1nnc2c(C(N)=O)ncn2c1=O | > 10 | > 10 | > 10 | > 10 | > 10 | 113 | 125 | 106 | 115 | 131 | 102 | 125 | 135 | 113 | 113 | 97.4 | 119 | 128 | 136 | 122 | viability, T/C [16]: 109%; viability, T/C [17]: 111%; viability, T/C [18]: 125%; viability, T/C [19]: 123%; viability, T/C [20]: 108%; viability, T/C [21]: 116%; viability, T/C [22]: 109%; viability, T/C [23]: 103%; viability, T/C [24]: 144%; viability, T/C [25]: 108%; viability, T/C [26]: 114%; viability, T/C [27]: 122%; viability, T/C [28]: 130%; viability, T/C [29]: 110%; viability, T/C [30]: 132% |
| [2H]c1nc(C)nc([2H])c1-c1cc(NC[C@@H](C)c2cccc3c(C(=O)NC)ccnc23)ncn1 + Cn1nnc2c(C(N)=O)ncn2c1=O | > 10 | > 10 | > 10 | > 10 | > 10 | 115 | 107 | 118 | 112 | 114 | 121 | 114 | 114 | 113 | 101 | 123 | 122 | 112 | 122 | 115 | viability, T/C [16]: 110%; viability, T/C [17]: 113%; viability, T/C [18]: 115%; viability, T/C [19]: 103%; viability, T/C [20]: 102%; viability, T/C [21]: 119%; viability, T/C [22]: 120%; viability, T/C [23]: 123%; viability, T/C [24]: 116%; viability, T/C [25]: 141%; viability, T/C [26]: 129%; viability, T/C [27]: 112%; viability, T/C [28]: 116%; viability, T/C [29]: 117%; viability, T/C [30]: 121% |
